Where two headings read alike, the source gives them in different places.
Tests used:
CRE1/AHK4 = CRE1/AHK4 (Arabidopsis thaliana, UniProt Q9C5U0); assay: Cytokinin receptor activation assay in E. coli (CRE1/AHK4); format: cell-based; design: expressed in transfected cells; host or cells: Escherichia coli strain KMI001, plasmid pIN-IIIAHK4; conditions: E. coli bacterial receptor assay
Excerpt: (§1) The activity of this enzyme is finally measured in the assay and corresponds to the ability of the tested compound to activate this cytokinin receptor. Both assays were done at least twice and the presented graphs are the most representative examples.

[1] = tested on: excised wheat leaves (chlorophyll degradation in the dark); assay: Wheat leaf senescence assay (WLSA); format: cell-based, Triticum aestivum cv. Hereward; conditions: for Chlorophyll content (% of the fresh control): 5 days in the dark, DMSO control = 0; for chlorophyll remaining, % of the initial chlorophyll: 21 days after leaf detachment, dark; for IC50: Triticum aestivum, 120 h
Procedure: (§2) Tobacco callus, Amaranthus and Wheat leaf senescence assay (WLSA) were performed as described by Holub et al. ([1998]) including the number of repetitions in each assay. An exception to the published protocols was that the tobacco callus assay was performed in 6-well microtiter plates (with each well containing 3 ml of Murashige Skoog medium into which 0.1 g of callus was added). Each compound was tested at least twice in each assay and in a wider concentration range to obtain concentration-dependent activity curves. IC50 means compound concentration at which chlorophyll degradation is inhibited by 50% and EC50 means half the maximal effective concentration.
Amaranthus assay evaluates the induction of betacyanin synthesis in Amaranthus (Amaranthus caudatus var. atropurpurea) cotyledons, which is induced by cytokinins (Bamberger and Mayer, [1960]). The WLSA evaluates the ability of compounds to retard chlorophyll degradation in excised wheat leaves that are kept in the dark. The wheat leaf segments (Triticum aestivum cv. Hereward) were used in all other experiments requiring wheat. Arabidopsis (Arabidopsis thaliana) leaf senescence assay was performed with detached leaves from 30-day-old plants, which were grown in soil in phytotron under standard conditions (Rivero et al., [2014]). Four leaves of a combined weight of 60 mg were placed in a six-well plate and stored in the dark for 12 days at 22°C. The leaves (except the fresh control leaves) floated on water solutions of tested compounds. Fresh control leaves were leaves detached from a plant and immediately used for chlorophyll determination. The duration of the senescence assay of Arabidopsis leaves was prolonged to highlight the difference in chlorophyll content between a negative control and treatments. Arabidopsis leaves were losing chlorophyll more slowly than wheat leaves. Chlorophyll extraction and spectrophotometric determination of its content was done according to Holub et al. ([1998]).

AHK3 = biological target: T1, AHK3 (Arabidopsis thaliana, UniProt Q9C5U1); assay: Cytokinin receptor activation assay in E. coli (AHK3); format: cell-based
T1 construct: expressed in transfected cells; host or cells: Escherichia coli strain KMI001, plasmid pSTV28-AHK3
T1 sequence (Q9C5U1 1-1036): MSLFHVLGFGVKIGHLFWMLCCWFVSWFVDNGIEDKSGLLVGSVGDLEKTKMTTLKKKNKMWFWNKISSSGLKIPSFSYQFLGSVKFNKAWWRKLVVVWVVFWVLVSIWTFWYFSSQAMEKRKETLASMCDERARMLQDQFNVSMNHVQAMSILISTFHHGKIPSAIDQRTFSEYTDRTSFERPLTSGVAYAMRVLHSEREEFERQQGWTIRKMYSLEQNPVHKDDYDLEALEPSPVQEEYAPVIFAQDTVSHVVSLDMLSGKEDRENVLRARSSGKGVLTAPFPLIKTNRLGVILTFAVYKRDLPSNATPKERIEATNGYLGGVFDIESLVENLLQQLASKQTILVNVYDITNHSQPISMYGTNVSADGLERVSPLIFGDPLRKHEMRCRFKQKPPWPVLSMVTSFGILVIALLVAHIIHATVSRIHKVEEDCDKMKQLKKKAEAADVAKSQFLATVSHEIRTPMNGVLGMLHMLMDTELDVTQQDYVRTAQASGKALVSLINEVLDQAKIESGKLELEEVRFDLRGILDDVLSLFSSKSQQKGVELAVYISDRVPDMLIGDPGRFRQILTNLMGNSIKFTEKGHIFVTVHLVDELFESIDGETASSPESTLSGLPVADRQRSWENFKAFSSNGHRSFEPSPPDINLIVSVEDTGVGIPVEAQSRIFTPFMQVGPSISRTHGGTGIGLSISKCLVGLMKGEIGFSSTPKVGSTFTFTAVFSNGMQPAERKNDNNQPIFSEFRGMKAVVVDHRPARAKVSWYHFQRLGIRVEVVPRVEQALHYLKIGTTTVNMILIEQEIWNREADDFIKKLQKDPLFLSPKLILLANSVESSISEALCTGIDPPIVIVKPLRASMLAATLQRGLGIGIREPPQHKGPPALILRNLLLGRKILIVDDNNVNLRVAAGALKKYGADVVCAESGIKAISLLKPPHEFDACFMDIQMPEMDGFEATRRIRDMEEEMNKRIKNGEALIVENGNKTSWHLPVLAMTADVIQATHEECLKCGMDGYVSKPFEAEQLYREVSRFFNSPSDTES
Excerpt: as §1

[2] = tested on: cytokinin-dependent tobacco callus; assay: Tobacco callus bioassay; format: cell-based; conditions: for EC50: Nicotiana tabacum
Procedure: as §2

[3] = tested on: photosystem II complexes in wheat leaves from WLSA; assay: Two-dimensional clear-native/SDS electrophoresis of membrane complexes; design: species or system Triticum aestivum; conditions: 10 μM, 5 days in the dark
Procedure: Leaves from WLSA were frozen at −80°C and then dried overnight by lyophilization at 5°C. Dried material was homogenized by bead-beating (2 × 10 s) with 2.5 mm metal beads (Mini-Beadbeater-16, BioSpec, USA). The resulting powder was mixed with a thylakoid buffer, pH 6.5, containing 25 mM MES, 10 mM MgCl2, 10 mM CaCl2, and 25% glycerol and bead-beaten (4 × 10 s). The obtained cell extract was centrifuged, after which the insoluble fraction was transferred into a new tube and solubilized with 2% dodecyl-β-maltoside for 15 min on ice. The solution was centrifuged at 30,000 × g for 10 min to remove any non-solubilized cell debris and the obtained solubilized membrane proteins were separated by electrophoresis using a 4 to 12% polyacrylamide clear native gel (Wittig et al., [2007]). Individual components of protein complexes were resolved by incubating the gel strip from the first electrophoresis in 2% SDS and 1% dithiothreitol for 30 min at room temperature, after which the proteins were separated in a second dimension by SDS-electrophoresis using a denaturing 12 to 20% polyacrylamide gel containing 7 M urea (Dobáková et al., [2009]). Proteins were stained with Coomassie Brilliant Blue, and individual protein components were identified by comparing the protein pattern with previously published results (Pagliano et al., [2012]).

Chain of CRE1/AHK4 (Q9C5U0 whole entry): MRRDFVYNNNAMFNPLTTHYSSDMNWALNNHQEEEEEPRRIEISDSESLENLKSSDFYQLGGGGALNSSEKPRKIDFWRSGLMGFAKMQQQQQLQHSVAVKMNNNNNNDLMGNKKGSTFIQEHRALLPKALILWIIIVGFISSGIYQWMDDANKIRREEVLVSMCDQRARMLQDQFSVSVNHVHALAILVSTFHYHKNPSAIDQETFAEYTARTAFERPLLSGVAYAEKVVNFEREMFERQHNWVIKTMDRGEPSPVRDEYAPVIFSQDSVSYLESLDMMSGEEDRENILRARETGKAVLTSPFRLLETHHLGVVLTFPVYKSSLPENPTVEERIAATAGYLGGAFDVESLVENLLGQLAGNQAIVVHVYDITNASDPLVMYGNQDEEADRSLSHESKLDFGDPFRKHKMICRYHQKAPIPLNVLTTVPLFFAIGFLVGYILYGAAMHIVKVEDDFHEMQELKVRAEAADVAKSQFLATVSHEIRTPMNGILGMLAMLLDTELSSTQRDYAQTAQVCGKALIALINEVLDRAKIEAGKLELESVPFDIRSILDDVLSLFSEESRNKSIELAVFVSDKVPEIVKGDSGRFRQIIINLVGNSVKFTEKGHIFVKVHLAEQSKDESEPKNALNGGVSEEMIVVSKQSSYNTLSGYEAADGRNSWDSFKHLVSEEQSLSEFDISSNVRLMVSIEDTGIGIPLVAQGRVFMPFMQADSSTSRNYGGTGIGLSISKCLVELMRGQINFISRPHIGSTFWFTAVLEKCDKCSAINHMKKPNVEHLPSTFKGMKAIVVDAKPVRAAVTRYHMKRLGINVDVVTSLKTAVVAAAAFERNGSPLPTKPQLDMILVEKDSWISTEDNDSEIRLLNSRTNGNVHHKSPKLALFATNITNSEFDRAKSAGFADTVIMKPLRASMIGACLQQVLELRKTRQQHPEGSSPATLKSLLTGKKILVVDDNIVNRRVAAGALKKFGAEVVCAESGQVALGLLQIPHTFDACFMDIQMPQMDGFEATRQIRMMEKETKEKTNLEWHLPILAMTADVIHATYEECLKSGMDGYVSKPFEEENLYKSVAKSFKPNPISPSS

| SMILES | ability to activate the CRE1/AHK4 receptor (CRE1/AHK4) | Chlorophyll content (% of the fresh control) ([1]; 0.01 μM) | Chlorophyll content (% of the fresh control) ([1]; 0.1 μM) | Chlorophyll content (% of the fresh control) ([1]; 1 μM) | Chlorophyll content (% of the fresh control) ([1]; 10 μM) | chlorophyll remaining, % of the initial chlorophyll ([1]; 10 μM) | Chlorophyll content (% of the fresh control) ([1]; 100 μM) | IC50 ([1]; detached wheat leaves in the dark, 5 days, concentration at which chlorophyll degradation is inhibited by 50%, read-out: Senescence bioassay (IC50)) [µM] | times more effective than TDZ in WLSA ([1]; ratio of IC50 values) | EC50 (AHK3; E. coli bacterial receptor assay, read-out: AHK3 receptor activation EC50) [nM] | cell division stimulatory effect, times lower than that of TDZ [2] | EC50 ([2]; half the maximal effective concentration, N.A. = not active, read-out: Tobacco callus bioassay (EC50)) [µM] | Tobacco callus bioassay (EC50, μM) ([2]; half the maximal effective concentration, N.A. = not active) | level of PSII-LHCII supercomplexes [3] | membrane complexes / level of dimeric PSII in senescent leaves [3] | IC50 ([1]; read-out: Senescence bioassay (IC50, μM)) [µM] | EC50 (AHK3) [nM] | EC50 ([2]; read-out: Tobacco callus bioassay (EC50, μM)) [µM] |
| --- | --- | --- | --- | --- | --- | --- | --- | --- | --- | --- | --- | --- | --- | --- | --- | --- | --- | --- |
| COCCNC(=O)Nc1cnns1 [ASES, 1-(2-methoxy-ethyl)-3-1,2,3-thiadiazol-5-yl-urea] | No other derivative from the series, including ASES, was able to activate | 8 (±4) % | 25 (±7) % | 51 (±8) % | 79 (±8) % | ~50% | 98 (±7) % | 0.95 | approximately 13 times | > 50000 | more than 700 times | 0.68 | sub-micromolar range | even higher level of PSII-LHCII supercomplexes than we observed for fresh control | very similar to those of the fresh control, including high levels of dimeric PSII |  |  |  |
| O=C(Nc1ccccc1)Nc1cnns1 [TDZ, 1-phenyl-3-(1,2,3-thiadiazol-5-yl)urea, reference compound] |  | 8 (±2) % | 18 (±5) % | 34 (±7) % | 50 (±11) % | approximately 15% | 91 (±2) % |  |  |  |  |  |  | completely lost |  | 13 | 105 | 0.001 |

Reference: paper PMC6142817, “New Urea Derivatives Are Effective Anti-senescence Compounds Acting Most Likely via a Cytokinin-Independent Mechanism” (Frontiers in Plant Science, 2018)
